Test results as given in US20110152236A1 (SANOFI-AVENTIS, priority 2008, published 2011).

Tests used:
cannabinoid CB1 receptor [1] = biological target: T1, cannabinoid CB1 receptor (Mus musculus, UniProt P47746); assay: model of hypothermia induced by cannabinoid CB1 receptor agonist racemic CP55,940 in mice; assay type: in vivo; conditions: 3 mg/kg po, hypothermia induced by CP55,940 1.25 mg/kg
T1 construct: from tissue; host or cells: whole animal (mice; male CD1 mice in the gastrointestinal transit model)
T1 sequence (P47746 whole entry): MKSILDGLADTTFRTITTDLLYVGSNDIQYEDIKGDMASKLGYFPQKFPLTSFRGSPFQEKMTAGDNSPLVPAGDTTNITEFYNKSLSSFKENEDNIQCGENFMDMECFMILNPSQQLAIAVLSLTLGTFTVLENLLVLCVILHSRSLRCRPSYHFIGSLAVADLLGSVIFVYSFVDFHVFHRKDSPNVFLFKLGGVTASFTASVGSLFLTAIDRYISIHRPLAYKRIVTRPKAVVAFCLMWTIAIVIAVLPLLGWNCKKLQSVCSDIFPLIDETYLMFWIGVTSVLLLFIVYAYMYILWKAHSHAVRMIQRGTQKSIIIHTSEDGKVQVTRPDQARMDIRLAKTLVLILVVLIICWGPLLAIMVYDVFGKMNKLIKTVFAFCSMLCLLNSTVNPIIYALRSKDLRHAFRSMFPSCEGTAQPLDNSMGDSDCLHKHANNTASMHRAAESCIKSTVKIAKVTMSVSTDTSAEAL
Experimental: Other tests consisting in measuring the in vivo activity of the compounds of the invention were carried out. The antagonist activity of said compounds was shown by means of the model of hypothermia induced by a cannabinoid CB1 receptor agonist (racemic CP55,940 (1RS,3RS,4RS)-3-[hydroxy-2-(1,1-dimethylheptyl)phenyl]-4-(3-hydroxypropypcyclohexan-1-ol) at a dose of 1.25 mg/kg, in mice, according to the method described by R. G. Pertwee in Marijuana 84, Harvey D. J. eds, Oxford IRL Press, 263-277 (1985).

human CB1 receptor = biological target: T2, human CB1 receptor (Homo sapiens, UniProt P21554); assay: intracellular cyclic AMP test in U373MG cells (HTRF cAMP Dynamic Kit); assay type: cell-based; conditions: U373MG cells naturally expressing the human CB1 receptor; intracellular cyclic AMP; read-out: IC50
T2 construct: U373MG cells naturally expressing the human CB1 receptor; endogenous in cells; host or cells: U373MG cells
T2 sequence (P21554 whole entry): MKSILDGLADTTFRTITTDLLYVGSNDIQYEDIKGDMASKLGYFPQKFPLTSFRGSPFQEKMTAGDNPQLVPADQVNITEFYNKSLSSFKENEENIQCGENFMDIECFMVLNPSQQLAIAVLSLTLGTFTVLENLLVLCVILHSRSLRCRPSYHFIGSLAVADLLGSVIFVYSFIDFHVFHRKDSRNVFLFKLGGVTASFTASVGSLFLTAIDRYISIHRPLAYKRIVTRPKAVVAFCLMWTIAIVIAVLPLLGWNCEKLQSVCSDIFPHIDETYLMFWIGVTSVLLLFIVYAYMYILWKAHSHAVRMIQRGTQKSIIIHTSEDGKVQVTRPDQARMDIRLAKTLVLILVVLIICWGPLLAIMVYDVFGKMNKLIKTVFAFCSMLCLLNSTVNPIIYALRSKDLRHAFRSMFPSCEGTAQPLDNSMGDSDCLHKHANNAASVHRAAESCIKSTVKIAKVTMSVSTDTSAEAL
Experimental: The compounds according to the invention were the subject of pharmacological tests for determining the activity with respect to human cannabinoid CB1-type receptors. The efficacy of the compounds of formula (I) was determined in a functional test which measures cannabinoid CB1 receptor activity (intracellular cyclic AMP test). The test for detecting intracellular cyclic AMP in U373MG cells naturally expressing the human CB1 receptor was carried out as described in the following reference: Bouaboula et al., 1995, J. Biol. Chem. 270:13973-13980. The HTRF cAMP Dynamic Kit from CisBio was used to quantify the intracellular cyclic AMP. In this test, the IC50 values are between 0.001 μM and 2 μM.

cannabinoid CB1 receptor [2] = biological target: T1, cannabinoid CB1 receptor; assay: model of inhibition of gastrointestinal transit induced by racemic CP55,940 in mice; assay type: in vivo; conditions: 1 mg/kg per os; 3 hours after administration of the product; CP55,940 0.15 mg/kg ip; male CD1 mice
Experimental: The antagonistic activity of the compounds was also shown by means of the model of inhibition of gastrointestinal transit induced by racemic CP55,940 (1RS,3RS,4RS-3-[hydroxy-2-(1,1-dimethylheptyl)phenyl]-4-(3-hydroxypropyl)cyclohexan-1-ol) in mice, according to the method described by Rinaldi-Carmona et al., J. Pharmacol, Exp. Ther. 2004, 310, 905-914. Briefly, male CD1 mice receive the test product per os 30 minutes or 2 hours before administration of the racemic CP55,940 agonist (1RS,3RS,4RS-3-[hydroxy-2-(1,1-dimethylheptyl)phenyl]-4-(3-hydroxypropyl)cyclohexan-1-ol) (0.15 mg/kg ip in 10% Cremophor). After a further 30 minutes, the animals receive a charcoal bolus po. Thirty minutes later, the animals are euthanized (CO2/O2) and the intestine is dissected. The progression of the charcoal bolus in the intestine is expressed as percentage of the total length of the intestine.

percentage inhibition (cannabinoid CB1 receptor [1]) [%]	IC50 (human CB1 receptor) [nM]	melting point [°C]	percentages of inhibition (cannabinoid CB1 receptor [2]) [%]	Compound
28	6	218	82	CS(=O)(=O)N(c1cccc(C(=O)Nc2ccon2)c1)C1CN(C(c2ccc(Cl)cc2)c2ccc(Cl)cc2)C1 [Compound 5, 3-[{1-[bis(4-chlorophenyl)methyl]azetidin-3-yl}(methylsulphonyl)amino]-N-(isoxazol-3-yl)-benzamide]
32		202	68	CS(=O)(=O)N(c1cccc(C(=O)Nc2ccccn2)c1)C1CN(C(c2ccc(Cl)cc2)c2ccc(Cl)cc2)C1 [Compound 7, 3-[{1-[Bis(4-chlorophenyl)methyl]azetidin-3-yl}(methylsulphonyl)amino]-N-(pyridin-2-yl)benzamide]
